This note sets out measurements from US20210388320A1, “DIFFERENTIATION-INDUCED CELL POPULATION FROM WHICH […] CELLS HAVE BEEN REMOVED, USE OF SAME, AND METHOD FOR PRODUCING SAME” (priority 2014, published 2021).

Data set [1] relates to human iPS cell strain 253G1. The data set can be described thus: Microscope observation and crystal violet staining after JQ1 addition (Example 5). It counts as cell-based. The settings on record: 0.2 μM or more of JQ1, 96 hours later. How it is done: (§1) Human iPS cell strain 253G1 was seeded in a 12-well plate (cell density: 20% confluency). Human fibroblasts (NHDF) were seeded in a 12-well plate (cell density: 50% confluency).
(§2) Thereafter, microscope observation was performed 96 hours later, and crystal violet staining was carried out to visualize the cells (FIG. 9).

The test system of data set [2] is normal human dermal fibroblasts (NHDF). Described as above. It counts as cell-based. The settings on record: JQ1 up to 10 μM, 96 hours. As for the experimental part:
as §1, §2

Data set [3] concerns human iPS cell strain 253G1. The data set can be described thus: Cell proliferation assay (CCK-8 assay) with JQ1 (Example 6). Conditions: 0.2 μM or more of JQ1, 96 hours later. The format is cell-based. How it is done: Human iPS cell strain 253G1 was seeded in a 12-well plate (cell density: 20% confluency).
Thereafter, cell proliferation assay was performed 96 hours after addition (FIG. 10).
Background: Formazan colour is commonly taken as a measure of viable cells.

Data set [4] deals with TRA-1-60 positive cells in iPS-CM derived from human iPS cell strain MYH-GIP4. The data set can be described thus: TRA-1-60 positive rate in iPS-CM treated with JQ1 (Example 7). The format is cell-based. How it is done: After differentiation of undifferentiated pluripotent stem cells is induced, a cell dissociation reagent, such as Accutase, is applied to about 1×10^5 to 5×10^5 differentiated cells at 37° C. for 5 minutes, and differentiated cells are dissociated and collected by centrifugation. The differentiated cells are suspended in […] of PBS, and an anti-human TRA-1-60 antibody and an isotype control antibody, both of which are fluorescently labeled, are each added. Then, the resultants are each reacted at 4° C. for 20 minutes in a dark place. After the differentiated cells are washed with PBS and collected by centrifugation, they are each suspended in […] of PBS, passed through a cell strainer, and then collected in FACS tubes. In flow cytometry, fluorescent emission is detected by a detector corresponding to labeled fluorescence, and quantified. Fractions stained with the isotype control antibody are defined as negative fractions, whereas fractions with a higher fluorescence intensity are defined as positive fractions. Among fractions stained with the anti-human TRA-1-60 antibody, the ratio belonging to the positive fractions is expressed as a percentage.
iPS-CM derived from human iPS cell strain MYH-GIP4 was seeded in a 12-well plate (cell density: 90% confluency). […] Thereafter, the TRA-1-60 positive rate was quantified 96 hours after addition. […]

Data set [5] relates to Human iPS cell strain MYH-GIP4. The data set can be described thus: Microscope observation of cell death after BV addition (Example 1). The format is cell-based. Conditions: 5 μg/ml BV, 48 to 72 hours later. How it is done:
Human iPS cell strain MYH-GIP4 was seeded in a 12-well plate (cell density: 20% confluency). Forty-eight hours after seeding, 0, 0.05, and 5 μg/ml of an anti-CD30 antibody-binding agent (general name: Brentuximab vedotin, abbreviated as “BV”) (trade name: Adcetris (registered trademark)) was added to each well (the agent-containing medium was exchanged every 24 hours). Thereafter, microscope observation was performed every 24 hours. Since Adcetris (registered trademark) contains additives, in addition to BV, numerical values converted from the net weight of BV were described (i.e., “0, 0.05, and 5 μg/ml as BY”).

Data set [6] concerns normal human dermal fibroblasts (NHDF). The data set can be described thus: Microscope observation of cell death after BV addition, normal fibroblasts (Example 1). The format is cell-based. Conditions: 5 μg/ml BV, 72 hours after addition. As for the experimental part:
Similarly, in order to examine the influence of BV on normal human dermal fibroblasts (NHDF), the same experiment as in Example 1 was conducted.
Human fibroblasts (NHDF) were seeded in a 12-well plate (cell density: 50% confluency). Forty-eight hours after seeding, 0, 0.05, and 5 μg/ml of BV was added to each well (the agent-containing medium was exchanged every 24 hours). Thereafter, microscope observation was performed every 24 hours.

Data set [7] relates to NHDF. The data set can be described thus: Cell proliferation assay (CCK-8 assay) with BV (Example 2). The format is cell-based, human. Conditions: 0-50 μg/ml BV, 24-72 hours. How it is done: (§3) In order to clarify how the number of human iPS cells changed with various BV concentrations and BV treatment times, BV was added in vitro to human iPS cells, cell proliferation assay (CCK-8 assay), which reflects the number of cells, was performed, and viable cells were evaluated quantitatively.
Three human iPS cell strains (1231A3, MYH-GIP4, and 253G1) and NHDF were each seeded in a 12-well plate (cell density: 20% confluency). However, the cell density of NHDF was set to 50% confluency.
Forty-eight hours after seeding, 0, 5, 25, and 50 μg/ml of BV was added to each well (the agent-containing medium was exchanged every 24 hours). Thereafter, cell proliferation assay was performed 24 hours, 48 hours, and 72 hours after addition.

Data set [8] relates to human iPS cell strains (253G1, MYH-GIP4, and 201B7). The data set can be described thus: Cell proliferation assay (CCK-8 assay) with BV (Example 3). The format is cell-based. Conditions: 72 hours after treatment with 50 μg/ml BV, all the human iPS cells. As for the experimental part: as §3
(§4) Three human iPS cell strains (253G1, MYH-GIP4, and 201B7) and NHDF were each seeded in a 12-well plate (cell density: 20% confluency). However, the cell density of NHDF was set to 50% confluency.
(§5) Forty-eight hours after seeding, 0, 0.1, 0.25, 0.5, 1, 2.5, 5,10, 25, and 50 μg/ml of BV was added to each well (the agent-containing medium was exchanged every 24 hours). Thereafter, cell proliferation assay was performed 72 hours after addition.

For data set [9], the system named is NHDF. The description is as above. It counts as cell-based, human. The settings on record: 0.1-50 μg/ml BV, 72 hours. How it is done:
as §3, §4, §5

For data set [10], the system named is Lin28 expression in iPS-CM derived from human iPS cell strain 253G1. The data set can be described thus: Lin28 expression by quantitative PCR in iPS-CM treated with BV (Example 4). The format is cell-based. How it is done: This method is targeted for human iPS cell-derived cardiomyocytes (iPS-CM). iPS-CM is considered to contain tumorigenic undifferentiated cells, in addition to cardiomyocytes.
The method for inducing differentiation into cardiomyocytes was performed according to the following document: Matsuura K, et al. Creation of human cardiac cell sheets using pluripotent stem cells. Biochem Biophys Res Commun, 2012, and 425(2) pp. 321-7. iPS-CM derived from human iPS cell strain 253G1 was seeded in a 12-well plate (cell density: 90% confluency). Forty-eight hours after seeding, 0, 5, and 10 μg/ml of BV was added to each well (the agent-containing medium was exchanged every 24 hours). Thereafter, mRNA was extracted 72 hours and 96 hours after addition. Lin28 expression levels were quantified by quantitative PCR.

On to `Cc1sc2c(c1C)C(c1ccc(Cl)cc1)=N[C@@H](CC(=O)OC(C)(C)C)c1nnc(C)n1-2` [JQ1], for which the “cell death (microscope observation, crystal violet staining)” value in [1] is “complete cell death was induced”; in [2] it was “cell death was not observed”. This compound displayed a cell proliferation rate in data set [3] of no more than 10%. Moreover, the TRA-1-60 positive rate in data set [4] (1 μM JQ1, 96 hours after addition) is 0.2%; in data set [4] (5 μM JQ1, 96 hours after addition) it was 0.1%.
Consider Brentuximab vedotin [BV], for which the “cell death (microscope observation)” value in [5] is “cell death was partially induced”. Also, the “induction of cell death (macroscopic observation)” value in data set [6] was “induction of cell death was not observed macroscopically”. The “effect of BV on number of cells” value in data set [7] was “hardly affected”. Also, the cell proliferation in [8] is reported as no more than 20%. In addition, the “effect of BV on cell proliferation” value in data set [9] is reported as “hardly affected”. Also, the “expression of undifferentiated marker Lin28, of the control group (BV: 0 μg/ml)” value in data set [10] (72-hour treatment, BV 5 and 10 μg/ml) is given as “about 50%”. The “Lin28 expression level, pure human iPS cells regarded as 100%” value in [10] (72nd hour, BV-added groups) was “about 0.3%”.
